Key:
[1] = system: G. lamblia trophozoites (luciferase expressing, WBC6); assay: microbe, parasite or virus in culture; type: cell-based, Giardia lamblia; settings: for Giardia (16 uM) Mean % inhibition: initial Pathogen Box screen, single concentration 16 µM, inhibition compared to DMSO wells
Procedure, shortened: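 Luciferase-expressing WBC6 trophozoites plated at 250,000 cells/mL, compounds added 1:1, incubated anaerobically (GasPak bags) at 37 °C for 24 h; viability read by bioluminescence, with duplicate plates counted on a MOXI Z cell counter. Metronidazole control serially diluted 1:2 from 40 μM.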

[2] = system: C. parvum (UGA1 Nluc expressing strain in HCT-8 cells); assay: microbe, parasite or virus in culture; type: cell-based, Cryptosporidium parvum; settings: for Crypto (10 uM) Mean % inhibition: initial Pathogen Box screen, single concentration 10 µM, inhibition compared to DMSO wells; for C. parvum cell growth inhibition in the initial screen: 10 μM; for C. parvum cell growth inhibition in the initial screen / EC50: 48 hours; for EC50: Nluc C. parvum in HCT-8 cells, read-out: C. parvum EC50
Procedure, shortened: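 HCT-8 monolayers grown 48 h to 90–100% confluence, treated with compound at 10 μM or serial dilutions, then infected with bleach-treated UGA1 Nluc C. parvum oocysts.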

Compound: O=C(NCCc1ccccc1)c1cc(-c2cccnc2)cnc1NCC1CC1 [MMV026490]
- Giardia (16 uM) Mean % inhibition [1]: 12%
- Crypto (10 uM) Mean % inhibition [2]: X* (Mean or standard deviation are negative but not significantly different from the control to be a growth promoter)

Compound: CC(C)(C)CN1C(=O)C(c2ccccc2)(c2ccccc2)N=C1N [MMV026550]
- Giardia (16 uM) Mean % inhibition [1]: 35%
- Crypto (10 uM) Mean % inhibition [2]: X* (Mean or standard deviation are negative but not significantly different from the control to be a growth promoter)

Compound: CC(C)(CN)c1nc(-c2ccc(Cl)c(O)c2)c(-c2ccnc(N)n2)[nH]1 [MMV030734]
- Giardia (16 uM) Mean % inhibition [1]: 35%
- Crypto (10 uM) Mean % inhibition [2]: X* (Mean or standard deviation are negative but not significantly different from the control to be a growth promoter)

Compound: CNC(=O)C1Cc2c([nH]c3cc(Cl)ccc23)C2(CCN(CCc3ccccc3)CC2)N1 (stereo not shown) [MMV031011]
- Giardia (16 uM) Mean % inhibition [1]: 81%
- Crypto (10 uM) Mean % inhibition [2]: 72%

Compound: FC(F)(F)c1cccc(-c2nc3c(NCc4ccncc4)nccc3[nH]2)c1 [MMV032967]
- Giardia (16 uM) Mean % inhibition [1]: 26%
- Crypto (10 uM) Mean % inhibition [2]: 27%

Compound: O=C1COCc2ccc(Br)cc2N1Cc1ccc(C(F)(F)F)cc1 [MMV032995]
- Giardia (16 uM) Mean % inhibition [1]: 38%
- Crypto (10 uM) Mean % inhibition [2]: 41%

Compound: c1ccc(Oc2ccc(-c3cc(N4CCOCC4)n[nH]3)cc2)cc1 [MMV045105]
- Giardia (16 uM) Mean % inhibition [1]: 16%
- Crypto (10 uM) Mean % inhibition [2]: 19%

Compound: COc1cc(C(F)(F)F)nc2ccc(C)c(N)c12 [MMV047015]
- Giardia (16 uM) Mean % inhibition [1]: 65%
- Crypto (10 uM) Mean % inhibition [2]: 1.83%

Compound: N#Cc1ccc(-c2ccc(OCC(N)=O)cc2)cc1 [MMV053220]
- Giardia (16 uM) Mean % inhibition [1]: 74%
- Crypto (10 uM) Mean % inhibition [2]: 52%

Compound: CC(=O)N1CCc2cc3nc(C)cc(C)c3cc21 [MMV054312]
- Giardia (16 uM) Mean % inhibition [1]: 45%
- Crypto (10 uM) Mean % inhibition [2]: 59%

Compound: Cc1cc(C)nc(-n2nc(C)cc2Nc2ccccc2)n1 [MMV062221]
- Giardia (16 uM) Mean % inhibition [1]: 35%
- Crypto (10 uM) Mean % inhibition [2]: 50%

Compound: Cc1nn(Cc2ccccc2)c(Cl)c1C(=O)NC1CCCCCC1 [MMV063404]
- Giardia (16 uM) Mean % inhibition [1]: 55%
- Crypto (10 uM) Mean % inhibition [2]: 75%

Compound: FC(F)(F)c1nnc2ccc(Cl)nn12 [MMV069458]
- Giardia (16 uM) Mean % inhibition [1]: X* (Mean or standard deviation are negative but not significantly different from the control to be a growth promoter)
- Crypto (10 uM) Mean % inhibition [2]: 65%

Compound: O=C1N(Cc2cc3ccccc3s2)CC2CN(Cc3ccccc3)CCN12 (stereo not shown) [MMV084603]
- Giardia (16 uM) Mean % inhibition [1]: 62%
- Crypto (10 uM) Mean % inhibition [2]: 43%

Compound: O=C(Nc1cnc2ccccc2c1)c1cccc(-n2cnnn2)c1 [MMV084864]
- Giardia (16 uM) Mean % inhibition [1]: 63%
- Crypto (10 uM) Mean % inhibition [2]: 34%

Compound: COc1cncc(-c2cncc(N3CCN(c4ccncc4)CC3)n2)c1 [MMV085071]
- Giardia (16 uM) Mean % inhibition [1]: 19%
- Crypto (10 uM) Mean % inhibition [2]: 47%

Compound: O=C(C(Cc1c[nH]c2ccccc12)NS(=O)(=O)c1ccc(Cl)cc1)N1CCCCC1 (stereo not shown) [MMV085210]
- Giardia (16 uM) Mean % inhibition [1]: X* (Mean or standard deviation are negative but not significantly different from the control to be a growth promoter)
- Crypto (10 uM) Mean % inhibition [2]: X* (Mean or standard deviation are negative but not significantly different from the control to be a growth promoter)

Compound: CCCNC(=O)N1CCC2(CC1)CC(=O)c1cc(C)ccc1O2 [MMV085230]
- Giardia (16 uM) Mean % inhibition [1]: 63%
- Crypto (10 uM) Mean % inhibition [2]: 62%

Compound: N#Cc1ccc(-c2cnc(N)c(-c3ccc(C(N)=O)cc3)n2)cc1 [MMV085499]
- Giardia (16 uM) Mean % inhibition [1]: 61%
- C. parvum cell growth inhibition in the initial screen [2]: ≥ 95%
- EC50 [2]: 1930 nM
- Crypto (10 uM) Mean % inhibition [2]: 95%

Compound: CCOC(=O)NC(=O)c1ccsc1NC(=O)c1nc2ccccc2s1 [MMV090930]
- Giardia (16 uM) Mean % inhibition [1]: 18%
- Crypto (10 uM) Mean % inhibition [2]: 59%

Compound: O=C(Nc1nnc(-c2ccc(Cl)cc2)o1)c1cccc(C(F)(F)F)c1 [MMV102872]
- Giardia (16 uM) Mean % inhibition [1]: 35%
- C. parvum cell growth inhibition in the initial screen [2]: ≥ 95%
- EC50 [2]: 140 nM
- Crypto (10 uM) Mean % inhibition [2]: 95%

Compound: CCC(C)NC(=O)c1ccc(NC(=O)C2(c3ccccc3)CCCC2)cc1 (stereo not shown) [MMV146306]
- Giardia (16 uM) Mean % inhibition [1]: X* (Mean or standard deviation are negative but not significantly different from the control to be a growth promoter)
- Crypto (10 uM) Mean % inhibition [2]: 37%

Compound: CCOC(=O)c1c(NC(=O)c2c(F)c(F)c(F)c(F)c2F)sc(C(N)=O)c1C [MMV153413]
- G. lamblia inhibition of parasite growth in the initial screen ([1]; 16 μM, 24 hours): ≥ 95%
- Giardia (16 uM) Mean % inhibition [1]: 97%
- G. lamblia EC50 ([1]; luciferase expressing G. lamblia trophozoites, 24 hours, D-luciferin bioluminescence read-out): not potent
- Crypto (10 uM) Mean % inhibition [2]: X* (Mean or standard deviation are negative but not significantly different from the control to be a growth promoter)

Compound: Cc1cc(Cl)ccc1NC(=O)CCc1ccc(S(=O)(=O)NCC(C)C)cc1 [MMV161996]
- Giardia (16 uM) Mean % inhibition [1]: X* (Mean or standard deviation are negative but not significantly different from the control to be a growth promoter)
- Crypto (10 uM) Mean % inhibition [2]: 41%

Compound: CNC(=O)C1Cc2ccccc2N1C(=O)Cc1ccc(F)cc1 (stereo not shown) [MMV188296]
- Giardia (16 uM) Mean % inhibition [1]: 33%
- Crypto (10 uM) Mean % inhibition [2]: 54%

Compound: COc1ccc(C2(C(=O)Nc3ccc(Br)cc3)CCCC2)cc1 [MMV200748]
- Giardia (16 uM) Mean % inhibition [1]: 29%
- Crypto (10 uM) Mean % inhibition [2]: X* (Mean or standard deviation are negative but not significantly different from the control to be a growth promoter)

Compound: COc1ccc(OC(C)C(=O)Nc2ccc(Cl)cc2C)cc1 (stereo not shown) [MMV202458]
- Giardia (16 uM) Mean % inhibition [1]: 11%
- Crypto (10 uM) Mean % inhibition [2]: X* (Mean or standard deviation are negative but not significantly different from the control to be a growth promoter)

Compound: CCC(=O)Nc1ccccc1C(=O)Nc1ccccn1 [MMV202553]
- Giardia (16 uM) Mean % inhibition [1]: 35%
- Crypto (10 uM) Mean % inhibition [2]: 20%

Compound: COc1cccc(NC(=O)c2c(NC(=O)c3cccnc3)sc3c2CCC3)c1 [MMV228911]
- Giardia (16 uM) Mean % inhibition [1]: 37%
- Crypto (10 uM) Mean % inhibition [2]: 39%

Compound: COc1cccc(-n2nnnc2S(C)(=O)=O)c1 [MMV272144]
- Giardia (16 uM) Mean % inhibition [1]: X* (Mean or standard deviation are negative but not significantly different from the control to be a growth promoter)
- Crypto (10 uM) Mean % inhibition [2]: X* (Mean or standard deviation are negative but not significantly different from the control to be a growth promoter)

Compound: COc1cccc(-c2cc3c(Nc4cccnc4)nccc3[nH]2)c1 [MMV392832]
- Giardia (16 uM) Mean % inhibition [1]: 50%
- Crypto (10 uM) Mean % inhibition [2]: 68%

Compound: CN1CCN(c2nccc3[nH]c(-c4cccc(F)c4)cc23)CC1 [MMV393144]
- Giardia (16 uM) Mean % inhibition [1]: 77%
- Crypto (10 uM) Mean % inhibition [2]: 50%

Compound: Cc1cc(=O)[nH]c(-n2nc(C)cc2C)n1 [MMV393995]
- Giardia (16 uM) Mean % inhibition [1]: X* (Mean or standard deviation are negative but not significantly different from the control to be a growth promoter)
- Crypto (10 uM) Mean % inhibition [2]: 86%

Compound: CCc1nc2ccc(C(=O)NCc3ccc4c(c3)OCO4)cn2c1N(C)Cc1cccs1 [MMV407539]
- Giardia (16 uM) Mean % inhibition [1]: 17%
- Crypto (10 uM) Mean % inhibition [2]: 59%

Compound: CCOc1ccccc1NC(C)C(=O)Nc1cc(C(F)(F)F)ccc1N1CCOCC1 (stereo not shown) [MMV407834]
- Giardia (16 uM) Mean % inhibition [1]: 33%
- Crypto (10 uM) Mean % inhibition [2]: X* (Mean or standard deviation are negative but not significantly different from the control to be a growth promoter)

Compound: COC(=O)c1c(NC(=O)c2c(F)c(F)c(F)c(F)c2F)sc2c1CCCCC2 [MMV461553]
- Giardia (16 uM) Mean % inhibition [1]: 33%
- Crypto (10 uM) Mean % inhibition [2]: 49%

Compound: CS(=O)(=O)Cc1nc2ccccc2oc1=O [MMV553002]
- Giardia (16 uM) Mean % inhibition [1]: 12%
- Crypto (10 uM) Mean % inhibition [2]: 74%

Compound: c1ccc(-c2cc(N3CCCCC3)c3ccccc3n2)nc1 [MMV560185]
- Giardia (16 uM) Mean % inhibition [1]: X* (Mean or standard deviation are negative but not significantly different from the control to be a growth promoter)
- Crypto (10 uM) Mean % inhibition [2]: 47%

Compound: CCN(CC)S(=O)(=O)c1ccc(C(=O)Nc2cc(C)nn2-c2nc(C)c(C)c(=O)[nH]2)cc1 [MMV595321]
- Giardia (16 uM) Mean % inhibition [1]: 26%
- Crypto (10 uM) Mean % inhibition [2]: 92%

Compound: CCC(Sc1nc2ccccc2o1)C(=O)Nc1nnc(C)s1 (stereo not shown) [MMV611037]
- Giardia (16 uM) Mean % inhibition [1]: 46%
- Crypto (10 uM) Mean % inhibition [2]: X* (Mean or standard deviation are negative but not significantly different from the control to be a growth promoter)

Compound: O=C(NCCN1CCCC1)c1cc(NCCN2CCOCC2)nc2ccc(Cl)cc12 [MMV634140]
- Giardia (16 uM) Mean % inhibition [1]: 27%
- Crypto (10 uM) Mean % inhibition [2]: X* (Mean or standard deviation are negative but not significantly different from the control to be a growth promoter)

From paper PMC6095626, “Screening of the Pathogen Box for inhibitors with dual efficacy against Giardia lamblia and Cryptosporidium parvum” (PLoS Neglected Tropical Diseases, 2018)
